The values below come from US20210115061A1, “Small-Molecule HIV-1 Capsid Protein Inhibitors and Methods Using Same” (DREXEL UNIVERSITY, priority 2018, published 2021).

A short description of series [1]: Metabolic stability in human liver microsomes. The method, then:
The compounds were also assessed in human liver microsomal stability assays, plasma protein binding, aqueous solubility (pH 7.4), and evaluation of permeability using the Caco-2 assay.
Analysis in silico of the drug-like properties of the compounds generated in this study is used to drive compound selection. Physicochemical properties (log S, log P, etc.) of all of the new scaffolds are evaluated and compared to PF-74 using StarDrop (Optibrium, UK). The likelihood of metabolism of our new scaffolds, as compared to PF-74, by the common CYP P450 isoforms, was assessed using StarDrop and its P450 module (www dot optibrium dot com/stardrop/stardrop-p450-models dot php). StarDrop's P450 models use quantum mechanical calculations of the activation energy for hydrogen abstraction or direct oxidation, based on the semi-empirical AMi method. These are combined with ligand-based models of the steric and orientation effects of the binding pockets of each P450 isoform on the accessibility of each potential site of metabolism. This total analysis results in predictions of the regioselectivity of metabolism and the lability of each site, a measure of the efficiency of product formation—both important factors governing the rate of metabolism. Compounds of Formula I identified herein that meet the criteria for potency and cytotoxicity are evaluated in in vitro ADME assays (FIG. 8). Specifically, we use microsomal stability and plasma protein binding assessment as reliable indicators of clearance and half-life in vivo. Aqueous solubility is evaluated because low solubility or stability in assay media is detrimental to the development of sound structure-activity-relationships. Low solubility can also hamper our ability to formulate analogs for future in vivo studies. A Caco-2 assay is used to assess cell permeability issues.
T1/2 is the liver microsomal half-life, CLint, CLapp, and CLh are pharmacokinetic clearance parameters.
For orientation: Microsomes from liver hold many membrane-bound enzymes, among them those of drug oxidation.

Series [2] relates to HIV-1. The series can be described thus: microbe, parasite or virus in culture. The method, then: The potency of compounds of Formula I was evaluated via single round and multicycle HIV-1 replication assays. The single round assay is used as the first level of potency testing. […] The multicycle HIV-1 replication assay uses primary isolates and primary human peripheral blood mononuclear cells (PBMCs). Toxicity is evaluated simultaneously with the cells utilized in each assay to allow determination of the therapeutic index (TI=CC50/IC50) of each compound. HIV-1 replication assays are performed in primary PBMCs such as described in Kortager, et al., 2012, J Virol. 86(16):8472-8481, Zentner, et al., 2013, ChemMedChem. 8(3):426-432 and Zentner, et al., 2013, Bioorg Med Chem Lett. 2013; 23(4): 1132-1135.

The subject of series [3] is HIV-1 CA hexamer protein. The series can be described thus: Direct binding to hexameric HIV-1 CA via SPR. Particulars: sensor chip immobilized CA hexamer. The source says: A direct binding assay was established using SPR (surface plasmon resonance) (FIGS. 5-7). This assay allows for the confirmation that maintained target specificity is maintained, and the analysis of the kinetic signatures of newly synthesized compounds allows for prioritization of compounds for antiviral testing. […] Therefore, compounds with slower off-rates are prioritized for antiviral testing, as this characteristic should translate to increased potency. Additionally, the interaction of the next-generation compounds with CA proteins from clades A1, A2, B, C, and D (FIG. 11) was quantified. Hexameric versions of these constructs were developed, given their differential assembly properties, compared to the NL4-3 variant. This can be accomplished by modelling of the CA variants and mutation of residues (either A14C/E45C or A42C/T54C) between the N-terminal domains of adjacent subunits. Second, the cross-linked hexamers were prevented from polymerizing further into hyperstable capsid-like structures by mutations (W184A and M185A). The application of this to make hexameric capsomrs was first outlined in Pomillos et al. 2010. J. Mol. Biol. 401(5):985-95. The SPR analysis indicates a compound's potential performance in the therapeutic spectrum testing against other clades in the following sub-aim and provide a facile way in which to rank order compounds for antiviral testing.

Series [4] concerns cells utilized in each assay. The series can be described thus: Toxicity (CC50) evaluated with the cells utilized in the infection assay. Particulars: Table 2. The class given is cell-based. As to the method: (§1) As used herein, the term “CC50” is the half-maximal cytotoxic concentration of a particular compound or agent.
(§2) The potency of compounds of Formula I was evaluated via single round and multicycle HIV-1 replication assays. The single round assay is used as the first level of potency testing. Compounds that display antiviral activity equal to or greater than PF-74 in the primary assay are quantified in the multicycle HIV-1 assays. The multicycle HIV-1 replication assay uses primary isolates and primary human peripheral blood mononuclear cells (PBMCs). Toxicity is evaluated simultaneously with the cells utilized in each assay to allow determination of the therapeutic index (TI=CC50/IC50) of each compound. HIV-1 replication assays are performed in primary PBMCs such as described in Kortager, et al., 2012, J Virol. 86(16):8472-8481, Zentner, et al., 2013, ChemMedChem. 8(3):426-432 and Zentner, et al., 2013, Bioorg Med Chem Lett. 2013; 23(4): 1132-1135.

Assay in series [5]: as above
Particulars: Table 2. It counts as cell-based. The method, then:
as §1, §2

Setting [6] is: racemates and (R)/(S) enantiomers, Table 4.
[7] abbreviates: human liver microsomal stability assay, compared to PF-74.
The mark [8] stands for this setting: liver microsomal half-life, Table 3.
[9] abbreviates: metabolic stability of racemates and (R)/(S) enantiomers, Table 5.
Where [10] appears, read: inhibition of HIV-1 in the early stages of replication, Table 2.
Setting [11] is: human, liver microsomes, T1/2, liver microsomal half-life, Table 3.
Setting [12] is: human, liver microsomes, T1/2, metabolic stability of racemates and (R)/(S) enantiomers, Table 5.
Setting [13] is: human liver microsomes, Table 1.

Where “and” joins values, the source holds several entries; their conditions need not be identical. Equal entries are not always repeated. Entries after “also recorded” stand apart in the source; their conditions may differ. Where two headings read alike, the source gives them in different places.

Regarding `Cc1[nH]c2ccccc2c1CC(=O)N[C@H](Cc1ccccc1)C(=O)N(C)c1ccccc1` [(R)-PF-74, reference compound], the T1/2 in series [1] (human, microsomes) was determined as 0.6 min.
Usually IC50 stands for the concentration at which inhibition is half-maximal. In series [1] (human, microsomes), `Cc1[nH]c2ccccc2c1CC(=O)N[C@@H](Cc1ccccc1)C(=O)N(C)c1ccccc1` [(S)-PF-74, reference compound] registered a T1/2 of 0.5 min. In series [2] (setting [6]), the IC50 is 0.08 ± 0.0057 µM and the “Therapeutic index (CC50/IC50)” value stood at 3075.
Turning to `CC(C)c1nc2c(n1CC(=O)NC(Cc1ccccc1)C(=O)N(C)c1ccccc1)CCCC2` (centres unmarked) [CX03], in series [1] (human, microsomes), the “improvement in metabolic stability over PF-74” value (“improvement … over PF-74” below) came to 4 fold. The “binding to HIV-1 CA hexamer (in words)” value in series [3] is on record as “relatively low-affinity”. Besides, the “reduction in potency relative to PF-74” value in series [2] (compared to PF-74) stood at 10 fold.
One may read the CC50 as the concentration giving 50% cytotoxicity. Higher therefore signals better tolerance by the cells. For the compound `CN(C(=O)C(Cc1ccccc1)NC(=O)Cc1n[nH]c2c(N)cccc12)c1ccccc1` (centres unmarked) [Compound C4], the “improvement … over PF-74” value in series [1] (setting [7]) was 34 fold and 30 fold. The compound also had a T1/2 in series [1] (setting [8]) of 20 min. In series [1] (liver microsomes, Table 3), the CLapp was determined as 4.0276 L/h/kg, the CLh stood at 0.92454 L/h/kg, the CLint worked out at 69.6 µL/min/mg and the Eh amounted to 77. For the same compound, the k in series [1] (liver microsomes, Table 3) is given as 0.03481. In addition, in series [1] (setting [9]), the T1/2 was 20 min. The compound further displayed a cytotoxic concentration (CC50) in series [4] of 284 ± 0.2 µM. In addition, the “binding to HIV-1 CA hexamer (in words)” value in series [3] is “interacts with the CA hexamer similarly to PF-74; also recorded: higher affinity”. In addition, the “increase in the therapeutic index (CC50/IC50) over PF-74” value in series [2] (compared to PF-74) is on record as “over 7 fold”. In series [2] (setting [10]), this compound had an IC50 of 0.0515 ± 0.0184 µM. In series [2] (setting [6]), the midpoint of inhibition, the IC50, lay at 0.0515 ± 0.0184 µM and the “Therapeutic index (CC50/IC50)” value stood at 5515.
In general, microsomal CLint refers to the capacity of the preparation to metabolise the compound, expressed as a volume cleared per time. Read a low microsomal CLint as slow turnover. What is called half-life is the time in which the quantity being followed falls by half. For `Cc1[nH]c2ccccc2c1CC(=O)NC(Cc1ccccc1)C(=O)N(C)c1ccc2[nH]ncc2c1` (centres unmarked) [Compound C11], the “improvement … over PF-74” value in series [1] (setting [7]) is 34 fold. This compound displayed a microsomal CLint in series [1] (human, liver microsomes) of 78.7 µL/min/mg. The same compound showed a half-life in series [1] (setting [11]) of 18 min. Besides, in series [1] (setting [12]), the half-life is 17.6 min. Moreover, in series [1] (liver microsomes, Table 3), the CLapp worked out at 4.552 L/h/kg, the CLh amounted to 0.94968 L/h/kg, the Eh came to 79.1 and the k is reported as 0.03934. For the same compound, in series [5], the midpoint of cytotoxicity, the CC50, lay at 366 ± 29 µM. In addition, in series [2] (Human immunodeficiency virus 1), the IC50 amounted to 0.173 ± 0.058 µM. Also, the “Therapeutic index (CC50/IC50)” value in series [2] (setting [6]) worked out at 2115.
Consider `CN(C(=O)C(Cc1ccccc1)NC(=O)Cc1n[nH]c2c(N)cccc12)c1ccc2[nH]ncc2c1` (centres unmarked) [Compound C12], for which the “improvement … over PF-74” value in series [1] (setting [7]) was found to be 118 fold. The compound also displayed a microsomal CLint in series [1] (human, liver microsomes) of 19.5 µL/min/mg. In addition, the half-life in series [1] (setting [11]) was 71 min. This compound also returned a half-life in series [1] (setting [12]) of 71 min. In series [1] (liver microsomes, Table 3), this compound yielded a CLapp of 1.1291 L/h/kg, a CLh of 0.5818 L/h/kg, an Eh of 48.5 and a k of 0.00976. The compound also showed a CC50 in series [5] of 183 ± 15 µM. Besides, inhibition in series [2] (Human immunodeficiency virus 1) was half-maximal at 0.302 ± 0.167 µM (IC50). For the same compound, in series [2] (setting [6]), the “Therapeutic index (CC50/IC50)” value stood at 606.
In the case of `Cc1[nH]c2ccc(S(=O)(=O)F)cc2c1CC(=O)NC(Cc1ccccc1)C(=O)N(C)c1ccc2cn[nH]c2c1` (centres unmarked) [Compound C13], the “binding to HIV-1 CA hexamer (in words)” value in series [3] was “even more potent binding than (S)-C11”. Besides, the IC50 in series [2] (Human immunodeficiency virus 1, 24 h, read-out: 24 h post-infection IC50) came out at 0.0231 ± 0.00429 µM; in series [2] (Human immunodeficiency virus 1, 48 h, read-out: 48 h post-infection IC50) it was 0.0239 ± 0.00324 µM; in series [2] (Human immunodeficiency virus 1, 72 h, read-out: 72 h post-infection IC50), 0.0291 ± 0.00567 µM.
On to `Cc1[nH]c2ccccc2c1CC(=O)N[C@@H](Cc1ccccc1)C(=O)N(C)c1ccccc1` [PF-74, reference compound], for which, in series [1] (setting [13]), the CLapp worked out at 134.9656 L/h/kg, the CLint came to 2332.7 µL/min/mg, the Clh came to 1.1894 L/h/kg and the Eh was 99.12%. In addition, in series [1] (setting [13]), the T1/2 worked out at 0.59 min, the k stood at 1.166 and the “metabolic lability (in words)” value was “highly metabolically labile”. The same compound returned a T1/2 in series [1] (setting [8]) of 0.6 min. In series [1] (liver microsomes, Table 3), this compound had a CLapp of 134.9656 L/h/kg, a CLh of 1.1894 L/h/kg, a CLint of 2332.7 µL/min/mg and an Eh of 99.12. This compound returned a k in series [1] (liver microsomes, Table 3) of 1.166. This compound also displayed a T1/2 in series [1] (setting [9]) of 0.6 min. In series [4], this compound returned a CC50 of 73 ± 15 µM. Besides, the “binding to HIV-1 CA hexamer (in words)” value in series [3] is recorded as “higher affinity”. This compound had an IC50 in series [2] (setting [10]) of 0.0951 ± 0.0317 µM. Also, in series [2] (setting [6]), the IC50 amounted to 0.0951 ± 0.0317 µM and the “Therapeutic index (CC50/IC50)” value was 768.
`C[C@]12CC[C@H]3[C@@H](CCC4=CC(=O)CC[C@@]43C)[C@@H]1CC[C@@H]2O` [Testosterone, reference compound]: in series [1] (setting [13]), the CLapp amounted to 4.4575 L/h/kg and the Clh was 0.94548 L/h/kg. In series [1] (liver microsomes, Table 3), the CLapp was determined as 4.4575 L/h/kg and the CLh was 0.94548 L/h/kg.
`CC(=O)CC(c1ccccc1)c1c(O)c2ccccc2oc1=O` (centres unmarked) [Warfarin, reference compound] displayed a k in series [1] (human) of −0.00509.
